Data reported in patent US11479802B2, “Assays for screening activity of modulators of members of the hydroxy steroid (17-beta) dehydrogenase (HSD17B) family” (Regeneron Pharmaceuticals, Inc., priority 2017, dated 2022).

Assays:
[1] = target: T1, recombinant HSD17B13 (E20-K300) (Homo sapiens, UniProt Q7Z5P4); assay: Biochemical NADH-linked screen of bioactive lipids as substrates (Example 2); conditions: 5 μM substrate, 100 μM NAD+, four hours at room temperature
T1 construct: recombinant HSD17B13 (E20-K300)
T1 sequence (Q7Z5P4 20-300): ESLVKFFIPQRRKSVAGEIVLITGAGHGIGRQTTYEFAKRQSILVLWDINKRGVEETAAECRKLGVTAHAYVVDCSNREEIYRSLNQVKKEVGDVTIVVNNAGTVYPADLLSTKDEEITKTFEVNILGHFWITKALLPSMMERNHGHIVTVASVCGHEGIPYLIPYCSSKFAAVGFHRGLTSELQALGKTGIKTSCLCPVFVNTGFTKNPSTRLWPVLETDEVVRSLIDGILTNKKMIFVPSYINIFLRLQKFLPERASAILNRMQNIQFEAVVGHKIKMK
Method: The biochemical assay described in Example 1 was repeated using bioactive lipids as substrates. In brief, 5 μM of each substrate was incubated in 40 μL reactions containing 1 μg of recombinant HSD17B13 (E20-K300) or beta-2 microglobulin (as a negative control) and 100 μM NAD^+ in 0.2M Tris-HCl, pH 7.5. After four hours of incubation at room temperature, 10 μL of each reaction was mixed with 10 μL luciferase and read, after 40 minutes, on an Envision Plate Reader (Perkin Elmer).

human HSD17B13 = target: T2, human HSD17B13 (Homo sapiens, UniProt Q7Z5P4); assay: Substrate screening of steroid and bioactive lipid libraries against purified recombinant HSD17B13 (NADH-linked luciferase assay); format: biochemical; conditions: for HSD17B13 Enzymatic Activity Relative Light Units: 500 μM NAD+, 100 ng enzyme, 3 hours at 23° C.; for HSD17B13 Enzymatic Activity Percent Estradiol Control: normalized to 50 μM estradiol after subtraction of 5% DMSO
T2 sequence (Q7Z5P4 20-300): T1 sequence (Q7Z5P4 20-300)
Summary of the method: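 Recombinant human HSD17B13 (100 ng) incubated 3 h at 23° C in 0.2 M Tris-HCl pH 7.5 with 500 μM NAD+ and 5 μM bioactive lipid or 50 μM steroid (5% DMSO). NADH measured by luciferase luminescence after 1 h; values as percent of 50 μM estradiol control after 5% DMSO subtraction.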

HSD17B4 = target: T3, HSD17B4 (Homo sapiens, UniProt P51659); assay: Steroid substrate panel against HSD17B family member B4; format: biochemical; conditions: substrate at 50 μM; estradiol set as 100%
T3 construct: made in house
T3 sequence (P51659 1-736): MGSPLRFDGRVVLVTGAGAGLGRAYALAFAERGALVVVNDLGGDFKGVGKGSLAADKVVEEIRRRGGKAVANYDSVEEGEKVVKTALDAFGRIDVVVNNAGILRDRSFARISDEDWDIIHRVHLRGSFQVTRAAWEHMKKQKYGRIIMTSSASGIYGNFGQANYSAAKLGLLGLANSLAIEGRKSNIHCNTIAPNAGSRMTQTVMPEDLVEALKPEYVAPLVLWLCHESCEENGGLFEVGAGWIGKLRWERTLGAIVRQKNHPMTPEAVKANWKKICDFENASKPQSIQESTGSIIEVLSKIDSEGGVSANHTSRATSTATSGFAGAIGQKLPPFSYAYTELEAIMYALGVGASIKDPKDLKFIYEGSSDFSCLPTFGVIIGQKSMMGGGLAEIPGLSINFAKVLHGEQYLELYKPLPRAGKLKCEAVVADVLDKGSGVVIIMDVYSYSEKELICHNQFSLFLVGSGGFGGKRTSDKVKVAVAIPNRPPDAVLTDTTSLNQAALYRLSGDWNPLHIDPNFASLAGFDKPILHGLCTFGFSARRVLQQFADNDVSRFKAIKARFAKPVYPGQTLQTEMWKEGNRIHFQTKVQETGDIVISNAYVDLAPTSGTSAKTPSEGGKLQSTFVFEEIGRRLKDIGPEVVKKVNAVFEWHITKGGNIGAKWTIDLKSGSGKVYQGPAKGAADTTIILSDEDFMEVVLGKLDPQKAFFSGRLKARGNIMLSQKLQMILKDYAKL
Method: (§1) To understand the functional consequences of premature truncation of the HSD17B13 protein due to rs72613567:TA (the associated variant, rs72613567, is an insertion of an adenine adjacent to the donor splice site of exon six (TA allele)), the enzymatic activity of isoforms A and D was evaluated in vitro using recombinant protein and nicotinamide […] dinucleotide as cofactor. Reactions were performed in a final volume of 40 μl of assay buffer (0.2 M Tris-HCl, pH 7.5) which contained 500 μM NAD^+, 5 μM bioactive lipid or 50 μM steroid (all in a final concentration of 5% DMSO), and 100 ng of recombinant human HSD17B13. Reactions were incubated for 3 hours, at 23° C., after which an equal volume detection reagent was added. Following a 1 hour incubation at 23° C., the relative light units (RLUs) were measured on an Envision Plate Reader (Perkin Elmer). Raw RLU values were normalized as percent of control (50 μM estradiol) following subtraction of negative control (5% DMSO) using the following formula: Percent of control (POC)=100×(Sample (RLU)−Negative CTRLaverage)/(Positive CTRLaverage−Negative CTRLaverage).
(§2) In order to determine specificity of compounds with inhibitory activity against HSD17B13, assays for selected members of the HSD17B family which includes HSD17B1-HSD17B14 were established. As a first step, selected family members were expressed, purified and tested for activity a using a steroid substrate panel. Substrates from the steroid panel were tested at 50 μM, using the standard assay protocol. Activity against the substrates for each HSD17B family member were normalized to Percent of Control (POC). The control, estradiol, was set as 100%.

HSD17B10 = target: T4, HSD17B10 (Homo sapiens, UniProt Q99714); assay: Steroid substrate panel against HSD17B family member B10; format: biochemical; conditions: substrate at 50 μM; estradiol set as 100%
T4 construct: made in house
T4 sequence (Q99714 1-261): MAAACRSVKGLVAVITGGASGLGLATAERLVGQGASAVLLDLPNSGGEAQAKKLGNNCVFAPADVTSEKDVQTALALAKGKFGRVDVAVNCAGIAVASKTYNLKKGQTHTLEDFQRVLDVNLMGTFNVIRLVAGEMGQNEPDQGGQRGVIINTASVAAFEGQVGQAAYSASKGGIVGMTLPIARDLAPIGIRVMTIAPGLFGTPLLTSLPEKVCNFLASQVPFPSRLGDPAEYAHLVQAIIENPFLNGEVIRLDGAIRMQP
Method: as §1, §2

HSD17B11 = target: T5, HSD17B11 (Homo sapiens, UniProt Q8NBQ5); assay: Steroid substrate panel against HSD17B family member B11; format: biochemical; conditions: substrate at 50 μM; estradiol set as 100%
T5 construct: made in house
T5 sequence (Q8NBQ5 20-300): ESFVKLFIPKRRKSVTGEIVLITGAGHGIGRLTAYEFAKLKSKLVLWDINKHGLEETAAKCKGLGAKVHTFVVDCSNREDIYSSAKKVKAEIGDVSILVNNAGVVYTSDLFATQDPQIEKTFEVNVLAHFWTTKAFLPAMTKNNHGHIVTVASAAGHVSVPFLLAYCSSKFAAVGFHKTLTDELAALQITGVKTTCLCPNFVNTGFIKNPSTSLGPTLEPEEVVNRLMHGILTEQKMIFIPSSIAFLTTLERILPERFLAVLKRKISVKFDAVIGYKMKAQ
Method: as §1, §2

HSD17B2 = target: T6, HSD17B2 (Homo sapiens, UniProt P37059); assay: Steroid substrate panel against HSD17B family member B2; format: biochemical; conditions: substrate at 50 μM; estradiol set as 100%
T6 construct: made in house
T6 sequence (P37059 1-387): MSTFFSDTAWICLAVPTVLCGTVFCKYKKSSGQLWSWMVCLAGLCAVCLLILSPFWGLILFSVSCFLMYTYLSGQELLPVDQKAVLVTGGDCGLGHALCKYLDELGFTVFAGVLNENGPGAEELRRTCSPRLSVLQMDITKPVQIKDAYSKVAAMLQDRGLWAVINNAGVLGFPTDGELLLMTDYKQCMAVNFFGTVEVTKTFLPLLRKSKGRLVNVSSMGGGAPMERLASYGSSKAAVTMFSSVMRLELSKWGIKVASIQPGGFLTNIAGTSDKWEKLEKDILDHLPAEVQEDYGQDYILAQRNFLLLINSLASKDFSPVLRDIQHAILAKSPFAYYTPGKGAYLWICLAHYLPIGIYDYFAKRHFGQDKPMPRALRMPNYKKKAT
Method: as §1, §2

HSD17B1 = target: T7, HSD17B1 (Homo sapiens, UniProt P14061); assay: Steroid substrate panel against HSD17B family member B1; format: biochemical; conditions: substrate at 50 μM; estradiol set as 100%
T7 construct: made in house
T7 sequence (P14061 1-328): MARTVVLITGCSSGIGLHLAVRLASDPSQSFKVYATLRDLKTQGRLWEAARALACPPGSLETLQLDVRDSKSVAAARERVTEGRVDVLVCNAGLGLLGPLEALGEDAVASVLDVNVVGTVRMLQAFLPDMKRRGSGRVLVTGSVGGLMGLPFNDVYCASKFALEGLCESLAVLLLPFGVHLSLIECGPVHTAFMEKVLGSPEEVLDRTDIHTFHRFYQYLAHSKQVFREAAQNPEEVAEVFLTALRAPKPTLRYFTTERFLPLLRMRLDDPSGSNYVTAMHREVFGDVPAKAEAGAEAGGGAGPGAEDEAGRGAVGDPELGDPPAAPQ
Method: as §1, §2

HSD17B5 = target: T8, HSD17B5 (Homo sapiens, UniProt P42330); assay: Steroid substrate panel against HSD17B family member B5; format: biochemical; conditions: substrate at 50 μM; estradiol set as 100%
T8 construct: made in house
T8 sequence (P42330 1-323): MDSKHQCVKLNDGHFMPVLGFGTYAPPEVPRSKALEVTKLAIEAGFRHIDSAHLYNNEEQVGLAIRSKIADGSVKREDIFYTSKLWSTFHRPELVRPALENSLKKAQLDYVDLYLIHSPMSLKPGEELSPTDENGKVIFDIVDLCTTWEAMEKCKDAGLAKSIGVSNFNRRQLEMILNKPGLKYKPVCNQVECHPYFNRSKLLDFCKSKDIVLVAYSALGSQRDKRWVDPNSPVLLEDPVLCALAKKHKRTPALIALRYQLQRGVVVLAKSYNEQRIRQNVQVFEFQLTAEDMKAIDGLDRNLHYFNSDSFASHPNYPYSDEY
Method: as §1, §2

[2] = Bioactive Lipid Library, 5 μM bioactive lipid

| SMILES | substrate for HSD17B13 [1] | identified as enzymatic substrate of HSD17B13 (human HSD17B13; 265 unique putative substrates tested) | HSD17B13 Enzymatic Activity Relative Light Units (human HSD17B13; Bioactive Lipid Library, 5 μM bioactive lipid (Estradiol Control 50 μM)) [RLU] | HSD17B13 Enzymatic Activity Percent Estradiol Control (human HSD17B13; [2]) [%] | Percent of Control (POC), B4 (HSD17B4) [%] | Percent of Control (POC), B10 (HSD17B10) [%] | Percent of Control (POC), B11 (HSD17B11) [%] | Percent of Control (POC), B2 (HSD17B2) [%] | Percent of Control (POC), B1 (HSD17B1) [%] | HSD17B13 Enzymatic Activity Relative Light Units (human HSD17B13; Steroid Library, 50 μM steroid) [RLU] | HSD17B13 Enzymatic Activity Percent Estradiol Control (human HSD17B13; Steroid Library, 50 μM steroid) [%] | Percent of Control (POC), B5 (HSD17B5) [%] | HSD17B13 Enzymatic Activity Percent Estradiol Control (human HSD17B13; Steroid Library, 50 μM steroid, listed as Beta-estradiol) [%] | HSD17B13 Enzymatic Activity Percent Estradiol Control (human HSD17B13; Steroid Library, 50 μM steroid, listed as Estradiol Control) [%] |
| --- | --- | --- | --- | --- | --- | --- | --- | --- | --- | --- | --- | --- | --- | --- |
| CCCCC/C=C\C[C@@H](O)/C=C/C=C/C=C\[C@@H](O)CCCC(=O)O [Leukotriene B4] | is a substrate | enzymatic substrates | 1743000 | 115.40 |  |  |  |  |  |  |  |  |  |  |
| C[C@]12CC[C@H](O)C[C@@H]1CC[C@@H]1[C@@H]2CC[C@]2(C)[C@@H](O)CC[C@@H]12 [5alpha-androstane-3beta,17beta-diol] |  |  |  |  | 38.9 | 1.2 | 0.0 | 42.5 | 0.3 | 398600 | 4.16 | 0 |  |  |
| C[C@]12CC[C@@H]3c4ccc(O)cc4CC[C@H]3[C@@H]1CC[C@@H]2O [Estradiol] |  |  |  | 100.00 | 100 | 100 | 100 | 100 | 100 |  | 85.76 | 100 | 72.17 | 100.00 |
| C[C@]12CCC(=O)C[C@@H]1CC[C@@H]1[C@@H]2CC[C@]2(C)[C@@H](O)CC[C@@H]12 [DHT, dihydroxy testosterone (DHT)] |  |  |  |  | 37.1 | 3.3 | 12.7 | 61.2 | 0.4 | 1886360 | 30.14 | 0 |  |  |
